Measurements as given in ChEMBL document CHEMBL4888484, “Replenishing the malaria drug discovery pipeline: Screening and hit evaluation of the MMV Hit Generation Library 1 (HGL1) against asexual blood stage Plasmodium falciparum ,using a nano luciferase reporter read-out” (2022).

Assays:
Plasmodium falciparum [1] = test: Hit confirmation in dose-response curve in NF54 nanoGlo assay, at 72h; format: functional, organism-based, Erythrocyte; set-up: timepoint 72 hour; conditions: Plasmodium falciparum, NF54, Erythrocyte, 72 h
[2] = Hit confirmation in dose-response curve in HepG2 cytotoxicity assay, at 72h; format: toxicity, cell-based; set-up: timepoint 72 hour; conditions: human, HepG2 cells
Plasmodium falciparum [3] = test: Hit confirmation in dose-response curve in Dd2 pLDH assay, at 72h; format: functional, organism-based; set-up: timepoint 72 hour; conditions: Dd2, Erythrocyte
Plasmodium falciparum [4] = test: Hit confirmation in dose-response curve in NF54 nanoGlo assay, at 12h; format: functional, organism-based, Erythrocyte; set-up: timepoint 12 hour; conditions: Plasmodium falciparum, NF54, Erythrocyte, 12 h
Plasmodium falciparum [5] = test: Hit confirmation in dose-response curve in NF54 pLDH assay, at 72h; format: functional, organism-based; set-up: timepoint 72 hour; conditions: NF54, Erythrocyte

Compound | IC50 (Plasmodium falciparum [1]) [µM] | IC50 (Plasmodium falciparum [3]) [µM] | IC50 (Plasmodium falciparum [4]) [µM] | IC50 (Plasmodium falciparum [5]) [µM] | IC50 at 72 h [2] [µM]
O=C(CCCc1ccccc1)Nc1cc(C2CC2)nn1-c1nc(-c2ccccc2)cc(=O)[nH]1 | 3.72 | 3.63 | > 10 | 6.03 | > 10
CNc1nc(Nc2ccc3c(c2)OCCO3)nc2ccccc12 | 0.851 | 1.17 | 1.91 | 1.17 | > 10
Cc1noc(Cl)c1CC(=O)N1CCCC(C)(C)CC1 | 2.29 | 4.07 | 7.94 | 5.62 | > 10
COc1nc(-c2cccc(C(=O)NCC3CCOCC3)c2)ncc1F | 0.575 | > 10 | > 10 | 1.66 | > 10
CN1CCC(NCC[C@@H](Cc2ccccc2Cl)c2ccc(Cl)cc2)CC1 | 1.51 | 2.24 | 2.45 | 2.57 | > 10
COc1nc(-c2cccc(C(=O)N3C[C@@H]4CC[C@H](C3)C(=O)N4)c2)ncc1F | 0.479 | > 10 | > 10 | 0.813 | > 10
Cn1nccc1/C=C1\CC2C3CCc4cc(O)ccc4C3CCC2(C)C1O (stereo not given) | > 10 | > 10 | > 10 | > 10 | > 10
Cc1cc[n+]2c(-c3ccccc3)cc(-c3ccccc3)nc2c1 | 1.51 | 1.78 | > 10 | 2.57 | > 10
COc1ccccc1CN(C(=O)c1ccc(C)cc1)c1ccc(CC(=O)NCCN2CCCCC2)cc1 | 3.16 | > 10 | > 10 | 0.513 | > 10
O=C(Nc1cccc(Cl)c1)Nc1cccc(-c2cnc3n2CCC3)c1 | 2.4 | 3.89 | 5.89 | 5.37 | > 10
CCCn1ccnc1-c1cn(Cc2cc3ccccc3[nH]2)nn1 | 2.82 | 4.79 | > 10 | 5.37 | > 10
O=C1NC(c2ccccc2)=NC12CCN(Cc1c(F)cccc1F)CC2 | 2.09 | 4.27 | > 10 | 6.46 | > 10
COc1ccc(C)c2sc(N(CCCn3ccnc3)C(=O)Cc3ccc(F)cc3)nc12 | 1.95 | 4.37 | 2.95 | 4.37 | > 10
COc1ccc(CCNc2nc(-c3ccc(OC)cc3F)c3c(N)n(-c4ccc(Cl)cc4)nc3n2)cc1 | 3.55 | 6.61 | 4.9 | > 10 | > 10
CCc1ccc(CN2CCC[C@H](c3ncc[nH]3)C2)nc1 | 1.15 | 1.78 | 10.7 | 1.55 | > 10
CC1CCN(C[C@H]2CCCCCN2C(=O)NCCc2ccccc2)CC1 | 3.98 | 6.31 | > 10 | 2.45 | > 10
Cc1cc2nc(C)c(=O)n(Cc3ccc(C(=O)NCCN4CCCC[C@@H]4C)cc3)c2cc1C | 4.17 | 6.92 | > 10 | 5.5 | > 10
C[C@H]1Cc2cc(C(=O)NCc3nc(C(F)(F)F)n[nH]3)ccc2O1 | 4.27 | > 10 | 1.45 | > 10 | > 10
O=C(Cc1ccc(N(Cc2cccc(F)c2)C(=O)C2CCCC2)cc1)NCCN1CCCCC1 | 0.501 | 0.724 | > 10 | 0.617 | > 10
Nc1nc(C2CC(N)C2)cc(N2CCC(Oc3ccccc3Cl)CC2)n1 (stereo not given) | 1.82 | 3.24 | 3.16 | 4.07 | > 10
Cc1nn(-c2nc3ccccc3[nH]2)c(O)c1CCC(C)C | 2.69 | 3.72 | 8.91 | 8.51 | > 10

More lines, main results first:

IC50 (Plasmodium falciparum [1]) [µM] | IC50 (Plasmodium falciparum [3]) [µM] | IC50 (Plasmodium falciparum [4]) [µM] | IC50 (Plasmodium falciparum [5]) [µM] | Compound | IC50 at 72 h [2] [µM]
> 10 | > 10 | > 10 | 0.0182 | Cn1c(=O)c2c(-c3ccc(Cl)cc3)n(-c3cccc4cccc(N)c34)cc2n(C)c1=O | > 10
2.45 | 4.17 | 4.9 | 5.01 | CC(N=C1NC(=NC(C)c2ccccc2)c2ccccc21)c1ccccc1 (stereo not given) | > 10
5.89 | > 10 | > 10 | > 10 | CCC(=O)N1CCc2sc(S(=O)(=O)N3CCN(c4cc(C)ccc4C)CC3)cc2C1 | > 10
> 10 | > 10 | > 10 | > 10 | NC(=O)C(NC(=O)c1cccc(Cl)c1)C(N)=O | > 10
1.66 | 5.5 | 4.57 | 3.72 | Cc1cccc(CN2CCC[C@H](C(=O)c3ccc4c5c(cccc35)CC4)C2)n1 | > 10
2.24 | 4.07 | > 10 | 8.13 | O=C1NCCCOc2cccc(c2)[C@H]2c3ccc(cc3CCN2C(=O)CCN2CCOCC2)Oc2ccc(O)c1c2 | > 10
1.74 | 4.27 | > 10 | 5.5 | Cc1ccccc1Cn1cnc2c1c(=O)n(C1CCCCC1)c(=O)n2-c1ccccc1Cl | > 10
0.794 | 0.776 | > 10 | 1.41 | COc1ccc(-[n+]2c(-c3ccccc3)cn3c2CCC3)cc1 | > 10
0.871 | 1.58 | > 10 | 4.47 | O=C1c2ccccc2C(c2ccc(NC(=O)c3cccc4ccccc34)cc2)(c2ccc(NC(=O)c3cccc4ccccc34)cc2)c2ccccc21 | > 10
2.45 | 2.29 | > 10 | 4.07 | O=C(N[C@@H]1CN(Cc2ccccn2)CCC[C@H]1O)c1ccc(OCc2ccccc2)cc1 | > 10
2.45 | 8.91 | > 10 | 2.14 | FC(F)Oc1ccc(-c2c[n+](-c3cccc(C(F)(F)F)c3)c3n2CCCCC3)cc1 | > 10
3.24 | 3.63 | 9.12 | 7.94 | COc1cccc(NC(=O)Cn2c(C)ccc(NS(=O)(=O)c3ccc(C)cc3)c2=O)c1 | > 10
1.2 | 0.832 | > 10 | 0.0891 | c1ccc(-c2nc(C[n+]3ccc4c(c3)CCCC4)cs2)cc1 | > 10
0.692 | 1.2 | 1.32 | 1.51 | CN1CCC(n2ncc3[nH]c(-c4ccc(C(F)(F)F)cc4)nc32)CC1 | > 10
0.263 | 2.95 | 1.15 | 2.95 | COc1cc(C(=O)Nc2ccc3sc(NC(=O)c4cc(OC)c(OC)c(OC)c4)nc3n2)cc(OC)c1OC | > 10
2.51 | 5.37 | > 10 | 1.66 | CCN1CCN(C(=O)c2ccccc2N2CCC(NC(=O)c3cccc(Br)c3)CC2)CC1 | > 10
1.48 | > 10 | 0.933 | 7.76 | Cc1oc(-c2ccn[nH]2)cc1S(=O)(=O)Nc1cccc(Cl)c1 | > 10
1.38 | 2.19 | 7.94 | 2.4 | Cc1cc(N(C)CCC2CC2)nc([C@H](C)N(C)CCC2CC2)n1 | > 10
1.2 | 2.75 | 1.26 | 3.24 | O=C(Nc1cc(-c2onc3c2CCCC3)cc(C(F)(F)F)c1)c1cncc(Br)c1 | > 10
5.01 | > 10 | > 10 | 7.24 | CN(C)c1noc(CN2CCc3ccc(F)cc3C2)n1 | > 10
2.45 | 9.55 | 4.9 | > 10 | COc1ccc(-c2cc3n(n2)C[C@@](C)(C(=O)NCc2ccccc2)N(Cc2ccc4c(c2)OCO4)C3=O)cc1 | > 10
3.09 | 3.09 | > 10 | 7.24 | CC(C(=O)Nc1nccs1)N1CCCC(c2ccn[nH]2)C1 (stereo not given) | > 10
0.871 | 1.86 | > 10 | 1.82 | CCCc1cc(-c2nc(-c3ccc(-n4nc(C)cc4N)cc3)no2)n(C)n1 | > 10
2.45 | 5.25 | 7.94 | 3.98 | O=C(Nc1cnc(-n2ccnc2)nc1)C(c1ccccc1)c1ccccc1 | > 10
5.01 | 6.31 | > 10 | 3.55 | CCc1ccc(C(=O)Nc2cnc(-n3ccnc3)nc2)cc1 | > 10
1.23 | 1.26 | 7.41 | 1.66 | Cc1cc(C)c2nc(C)cc(Nc3ccc(O)cc3)c2c1 | > 10
1.45 | 2.75 | 1.38 | 3.47 | CCCN1C(=O)c2ccccc2N2C(=O)CC[C@@]12C(=O)Nc1ccc(OC)cc1 | > 10
2.29 | 3.63 | 7.24 | 3.89 | COc1ccc(-c2cc3ncc(C(=O)c4cc(Cl)ccc4O)cn3n2)cc1 | > 10
3.16 | 5.01 | 6.76 | > 10 | COc1cc(OC)cc(C(=O)Nc2ccc3nc(N4CCC(C)CC4)cc(C)c3c2)c1 | > 10
